What all share (assay): MIC on clinically isolated bacteria
Common to all, as to type: cell-based

Assay [1] relates to Acinetobacter baumannii C181. An outline of the steps: (§1)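 Values were obtained by CLSI-conformant microdilution against clinically isolated Gram-negative strains.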
The test system of assay [2] is Acinetobacter baumannii C270. The method, boiled down:
as §1

For assay [3], the system named is Acinetobacter baumannii C281. The method, boiled down: as §1
Assay [4] has as its system Acinetobacter baumannii C312. An outline of the steps:
as §1

For assay [5], the system named is Acinetobacter baumannii C319. The method, boiled down:
as §1

The subject of assay [6] is Acinetobacter baumannii C361. The method, boiled down:
as §1

Assay [7] deals with Acinetobacter baumannii C403. The method, boiled down:
as §1

The subject of assay [8] is Acinetobacter baumannii C408. The method, boiled down:
as §1

The subject of assay [9] is Pseudomonas aeruginosa C763. An outline of the steps: as §1
The test system of assay [10] is Pseudomonas aeruginosa W1. An outline of the steps: as §1
Assay [11] concerns Pseudomonas aeruginosa W6. An outline of the steps:
as §1

Setting [12] is: Acinetobacter baumannii C181, read-out: Minimum Inhibitory Concentration (MIC).
Setting [13] is: Acinetobacter baumannii C270, read-out: Minimum Inhibitory Concentration (MIC).
Setting [14] is: Acinetobacter baumannii C281, read-out: Minimum Inhibitory Concentration (MIC).
[15] abbreviates: Acinetobacter baumannii C312, read-out: Minimum Inhibitory Concentration (MIC).
Setting [16] is: Acinetobacter baumannii C319, read-out: Minimum Inhibitory Concentration (MIC).
Where [17] appears, read: Acinetobacter baumannii C361, read-out: Minimum Inhibitory Concentration (MIC).
Setting [18] is: Acinetobacter baumannii C403, read-out: Minimum Inhibitory Concentration (MIC).
Where [19] appears, read: Acinetobacter baumannii C408, read-out: Minimum Inhibitory Concentration (MIC).

Drawing on patent publication US11459323B2, “Monocyclic β-lactam compound for treating bacterial infection” (MEDSHINE DISCOVERY INC., priority 2018, dated 2022), this text covers MIC for 4 compounds.

≈ marks a conversion by molar mass, not a printed value. Where two headings read alike, the source gives them in different places. Bounds are passed on as bounds.

Turning to `CC1(C)[C@H](NC(=O)/C(=N\O[C@@H](COc2ccc3c(c2)CN(C(=N)NCCCCN)C3)C(=O)O)c2csc(N)n2)C(=O)N1OS(=O)(=O)O` [Compound 36], the MIC in [1] (setting [12]), in assay [2] (setting [13]), in assay [3] (setting [14]), in assay [4] (setting [15]), in assay [5] (setting [16]) and in assay [6] (setting [17]) was 2 µg/mL (≈ 2.87 µM) in each case. The MIC in assay [7] (setting [18]) was 2 µg/mL (≈ 2.87 µM); in [8] (setting [19]), 2 µg/mL (≈ 2.87 µM); in [9] (read-out: MIC), 4 µg/mL (≈ 5.73 µM); in assay [10] (read-out: MIC), 0.5 µg/mL (≈ 0.717 µM); in assay [11] (read-out: MIC), 0.5 µg/mL (≈ 0.717 µM).

As for `CC1(C)[C@H](NC(=O)/C(=N\O[C@@H](COc2ccc3c(c2)CN(C(=N)NOCCN)C3)C(=O)O)c2csc(N)n2)C(=O)N1OS(=O)(=O)O` [Compound 43], the MIC in assay [1] (setting [12]) was greater than 16 µg/mL; in [2] (setting [13]) it was 8 µg/mL (≈ 11.7 µM); in [3] (setting [14]), 8 µg/mL (≈ 11.7 µM); in [4] (setting [15]), 8 µg/mL (≈ 11.7 µM); in assay [5] (setting [16]) it was 8 µg/mL (≈ 11.7 µM); in assay [6] (setting [17]) it was 8 µg/mL (≈ 11.7 µM). Moreover, the MIC in assay [7] (setting [18]) turned out to be 16 µg/mL (≈ 23.3 µM); in [8] (setting [19]), 8 µg/mL (≈ 11.7 µM); in assay [9] (read-out: MIC) it was 8 µg/mL (≈ 11.7 µM); in [10] (read-out: MIC) it was 8 µg/mL (≈ 11.7 µM); in [11] (read-out: MIC), 8 µg/mL (≈ 11.7 µM).

For the compound `CC1(C)[C@H](NC(=O)/C(=N\O[C@@H](COc2ccc3c(c2)CN(C(=N)N(CCN)CCN)C3)C(=O)O)c2csc(N)n2)C(=O)N1OS(=O)(=O)O` [Compound 45], the MIC in [1] (setting [12]) is greater than 16 µg/mL; in assay [2] (setting [13]), 16 µg/mL (≈ 22.4 µM); in assay [3] (setting [14]) it was 16 µg/mL (≈ 22.4 µM); in assay [4] (setting [15]), 16 µg/mL (≈ 22.4 µM); in assay [5] (setting [16]), 16 µg/mL (≈ 22.4 µM); in assay [6] (setting [17]) it was 8 µg/mL (≈ 11.2 µM). Also, the MIC is 16 µg/mL (≈ 22.4 µM) in assay [7] (setting [18]); 8 µg/mL (≈ 11.2 µM) in [8] (setting [19]); greater than 16 µg/mL in assay [9] (read-out: MIC); 16 µg/mL (≈ 22.4 µM) in assay [10] (read-out: MIC); greater than 16 µg/mL in [11] (read-out: MIC).

Consider `CN(C)c1cc(NC(=O)CNC(C)(C)C)c(O)c2c1C[C@H]1C[C@H]3[C@H](N(C)C)C(O)=C(C(N)=O)C(=O)[C@@]3(O)C(O)=C1C2=O` [Tigecycline, reference compound], for which the MIC was 1 µg/mL (≈ 1.71 µM) in assay [1] (Acinetobacter baumannii, C181, read-out: Minimum Inhibitory Concentration (MIC)); 1 µg/mL (≈ 1.71 µM) in [2] (Acinetobacter baumannii, C270, read-out: Minimum Inhibitory Concentration (MIC)); 1 µg/mL (≈ 1.71 µM) in [3] (Acinetobacter baumannii, C281, read-out: Minimum Inhibitory Concentration (MIC)); 1 µg/mL (≈ 1.71 µM) in assay [4] (Acinetobacter baumannii, C312, read-out: Minimum Inhibitory Concentration (MIC)); 1 µg/mL (≈ 1.71 µM) in assay [5] (Acinetobacter baumannii, C319, read-out: Minimum Inhibitory Concentration (MIC)); 1 µg/mL (≈ 1.71 µM) in assay [6] (Acinetobacter baumannii, C361, read-out: Minimum Inhibitory Concentration (MIC)). The MIC was 1 µg/mL (≈ 1.71 µM) in assay [7] (Acinetobacter baumannii, C403, read-out: Minimum Inhibitory Concentration (MIC)); 1 µg/mL (≈ 1.71 µM) in [8] (Acinetobacter baumannii, C408, read-out: Minimum Inhibitory Concentration (MIC)); greater than 16 µg/mL in assay [9]; 16 µg/mL (≈ 27.3 µM) in [10]; 16 µg/mL (≈ 27.3 µM) in assay [11].
